Reference: ChEMBL document CHEMBL2163268, “Structure-based design of a novel series of potent, selective inhibitors of the class I phosphatidylinositol 3-kinases” (J Med Chem, 2012)

Tests used:
[1] = target: Phosphatidylinositol 4,5-bisphosphate 3-kinase catalytic subunit beta isoform (Homo sapiens, UniProt P42338); assay: biochemical
Description: Inhibition of human N-terminal poly-His tagged-PI3Kbeta expressed in Sf9 baculovirus system co-expressing p85alpha after 20 mins by AlphaScreen assay

in vitro = details: rat, liver microsomes
Description: Intrinsic clearance in rat liver microsomes

[2] = target: Phosphatidylinositol 4,5-bisphosphate 3-kinase catalytic subunit gamma isoform (Homo sapiens, UniProt P48736); assay: biochemical
Phosphatidylinositol 4,5-bisphosphate 3-kinase catalytic subunit gamma isoform, sequence (P48736 whole entry, canonical isoform): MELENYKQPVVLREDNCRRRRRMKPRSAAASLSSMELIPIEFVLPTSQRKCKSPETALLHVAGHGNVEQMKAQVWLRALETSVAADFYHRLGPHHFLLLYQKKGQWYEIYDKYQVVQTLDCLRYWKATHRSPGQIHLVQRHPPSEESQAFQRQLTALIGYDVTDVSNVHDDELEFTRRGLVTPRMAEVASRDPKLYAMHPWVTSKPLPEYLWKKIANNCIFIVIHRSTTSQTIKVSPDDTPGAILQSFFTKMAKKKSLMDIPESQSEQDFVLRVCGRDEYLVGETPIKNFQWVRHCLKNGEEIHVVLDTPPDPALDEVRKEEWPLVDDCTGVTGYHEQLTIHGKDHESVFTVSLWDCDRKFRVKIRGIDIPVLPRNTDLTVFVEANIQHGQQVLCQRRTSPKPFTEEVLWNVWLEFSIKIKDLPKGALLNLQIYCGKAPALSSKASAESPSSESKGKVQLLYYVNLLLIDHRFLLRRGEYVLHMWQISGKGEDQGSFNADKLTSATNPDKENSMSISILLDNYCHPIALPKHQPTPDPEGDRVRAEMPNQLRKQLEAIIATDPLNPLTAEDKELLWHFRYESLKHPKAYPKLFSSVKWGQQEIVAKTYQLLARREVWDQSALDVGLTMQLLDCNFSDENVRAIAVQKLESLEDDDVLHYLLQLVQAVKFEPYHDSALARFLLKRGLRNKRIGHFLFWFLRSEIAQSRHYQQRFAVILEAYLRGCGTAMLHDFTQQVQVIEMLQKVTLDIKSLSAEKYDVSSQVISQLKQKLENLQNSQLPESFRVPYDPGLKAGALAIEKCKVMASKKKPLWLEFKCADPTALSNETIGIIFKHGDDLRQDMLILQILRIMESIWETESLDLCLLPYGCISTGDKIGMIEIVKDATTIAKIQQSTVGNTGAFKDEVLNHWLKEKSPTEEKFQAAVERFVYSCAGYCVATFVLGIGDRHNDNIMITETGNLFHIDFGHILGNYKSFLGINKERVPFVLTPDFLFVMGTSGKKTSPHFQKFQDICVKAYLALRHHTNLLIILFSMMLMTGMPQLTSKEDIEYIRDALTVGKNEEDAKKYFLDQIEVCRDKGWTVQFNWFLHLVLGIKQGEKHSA
Description: Inhibition of human N-terminal poly-His tagged-PI3Kgamma expressed in Sf9 baculovirus system co-expressing p85alpha after 20 mins by AlphaScreen assay

[3] = target: T1, Phosphatidylinositol 4,5-bisphosphate 3-kinase catalytic subunit delta isoform (Homo sapiens, UniProt O00329); assay: biochemical
T1 sequence (O00329 whole entry): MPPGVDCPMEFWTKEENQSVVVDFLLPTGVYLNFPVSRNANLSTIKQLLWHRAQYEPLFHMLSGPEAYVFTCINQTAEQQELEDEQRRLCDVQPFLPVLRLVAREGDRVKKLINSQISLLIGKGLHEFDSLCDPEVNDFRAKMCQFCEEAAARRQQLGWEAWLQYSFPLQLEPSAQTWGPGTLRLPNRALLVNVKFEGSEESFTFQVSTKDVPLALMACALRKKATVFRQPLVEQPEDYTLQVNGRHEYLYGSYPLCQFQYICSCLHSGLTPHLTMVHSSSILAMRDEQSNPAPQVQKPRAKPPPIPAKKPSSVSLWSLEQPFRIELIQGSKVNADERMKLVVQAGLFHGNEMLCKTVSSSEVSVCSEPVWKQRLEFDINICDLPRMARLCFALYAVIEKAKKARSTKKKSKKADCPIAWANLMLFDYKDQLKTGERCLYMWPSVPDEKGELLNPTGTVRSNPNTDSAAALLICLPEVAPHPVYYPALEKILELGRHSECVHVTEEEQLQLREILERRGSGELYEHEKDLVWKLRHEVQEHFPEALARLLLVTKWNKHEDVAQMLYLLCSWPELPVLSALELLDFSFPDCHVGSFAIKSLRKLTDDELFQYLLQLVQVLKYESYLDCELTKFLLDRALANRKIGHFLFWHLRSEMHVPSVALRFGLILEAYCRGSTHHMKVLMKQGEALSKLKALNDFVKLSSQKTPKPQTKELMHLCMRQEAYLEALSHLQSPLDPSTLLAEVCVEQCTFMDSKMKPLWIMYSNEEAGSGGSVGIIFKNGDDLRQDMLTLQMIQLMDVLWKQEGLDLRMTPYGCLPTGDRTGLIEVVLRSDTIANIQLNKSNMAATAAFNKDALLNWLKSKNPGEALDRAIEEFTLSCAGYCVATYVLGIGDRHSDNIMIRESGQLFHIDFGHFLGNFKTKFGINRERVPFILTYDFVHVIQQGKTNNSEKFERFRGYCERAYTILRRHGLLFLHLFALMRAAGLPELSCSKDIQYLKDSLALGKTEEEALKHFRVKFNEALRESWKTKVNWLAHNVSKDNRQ
Description: Inhibition of human N-terminal poly-His tagged-PI3Kdelta expressed in Sf9 baculovirus system co-expressing p85alpha after 20 mins by AlphaScreen assay

[4] = target: Phosphatidylinositol 4,5-bisphosphate 3-kinase catalytic subunit alpha isoform (Homo sapiens, UniProt P42336); assay: biochemical
Phosphatidylinositol 4,5-bisphosphate 3-kinase catalytic subunit alpha isoform, sequence (P42336 whole entry, canonical isoform): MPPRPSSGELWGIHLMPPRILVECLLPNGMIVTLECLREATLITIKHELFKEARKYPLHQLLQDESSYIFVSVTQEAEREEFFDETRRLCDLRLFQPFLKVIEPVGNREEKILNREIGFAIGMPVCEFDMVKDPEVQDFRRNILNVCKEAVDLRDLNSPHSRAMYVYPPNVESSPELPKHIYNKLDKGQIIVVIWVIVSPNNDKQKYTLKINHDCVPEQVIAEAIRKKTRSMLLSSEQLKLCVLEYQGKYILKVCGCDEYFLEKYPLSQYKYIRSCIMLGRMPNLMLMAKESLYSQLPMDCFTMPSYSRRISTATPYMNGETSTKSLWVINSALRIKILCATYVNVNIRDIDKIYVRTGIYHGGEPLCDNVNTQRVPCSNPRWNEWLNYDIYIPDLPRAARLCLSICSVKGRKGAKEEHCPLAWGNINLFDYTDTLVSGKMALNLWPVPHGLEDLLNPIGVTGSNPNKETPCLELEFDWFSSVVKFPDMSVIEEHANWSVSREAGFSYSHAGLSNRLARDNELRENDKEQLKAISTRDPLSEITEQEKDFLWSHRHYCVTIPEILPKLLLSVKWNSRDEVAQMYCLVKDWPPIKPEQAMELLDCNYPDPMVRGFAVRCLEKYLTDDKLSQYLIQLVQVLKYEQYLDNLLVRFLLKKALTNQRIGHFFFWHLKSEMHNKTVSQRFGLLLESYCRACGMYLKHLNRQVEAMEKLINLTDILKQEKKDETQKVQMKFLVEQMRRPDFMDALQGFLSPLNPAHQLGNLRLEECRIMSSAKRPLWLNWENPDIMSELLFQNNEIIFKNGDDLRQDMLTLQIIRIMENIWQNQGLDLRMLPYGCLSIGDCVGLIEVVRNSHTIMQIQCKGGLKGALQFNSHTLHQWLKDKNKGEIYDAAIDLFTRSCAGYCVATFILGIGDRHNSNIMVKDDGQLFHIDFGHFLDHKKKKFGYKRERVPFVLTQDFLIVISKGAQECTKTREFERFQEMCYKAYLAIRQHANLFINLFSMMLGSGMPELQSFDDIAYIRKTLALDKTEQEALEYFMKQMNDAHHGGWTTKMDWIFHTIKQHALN
Description: Inhibition of human N-terminal poly-His tagged-PI3Kalpha expressed in Sf9 baculovirus system co-expressing p85alpha after 20 mins by AlphaScreen assay

[5] = target: Serine/threonine-protein kinase mTOR (Homo sapiens, UniProt P42345)
Description: Inhibition of recombinant GST-tagged mTOR-mediated 4EBP1 phosphorylation after 90 mins by FRET assay

Phosphatidylinositol 4,5-bisphosphate 3-kinase catalytic subunit beta isoform, sequence (P42338 whole entry, canonical isoform): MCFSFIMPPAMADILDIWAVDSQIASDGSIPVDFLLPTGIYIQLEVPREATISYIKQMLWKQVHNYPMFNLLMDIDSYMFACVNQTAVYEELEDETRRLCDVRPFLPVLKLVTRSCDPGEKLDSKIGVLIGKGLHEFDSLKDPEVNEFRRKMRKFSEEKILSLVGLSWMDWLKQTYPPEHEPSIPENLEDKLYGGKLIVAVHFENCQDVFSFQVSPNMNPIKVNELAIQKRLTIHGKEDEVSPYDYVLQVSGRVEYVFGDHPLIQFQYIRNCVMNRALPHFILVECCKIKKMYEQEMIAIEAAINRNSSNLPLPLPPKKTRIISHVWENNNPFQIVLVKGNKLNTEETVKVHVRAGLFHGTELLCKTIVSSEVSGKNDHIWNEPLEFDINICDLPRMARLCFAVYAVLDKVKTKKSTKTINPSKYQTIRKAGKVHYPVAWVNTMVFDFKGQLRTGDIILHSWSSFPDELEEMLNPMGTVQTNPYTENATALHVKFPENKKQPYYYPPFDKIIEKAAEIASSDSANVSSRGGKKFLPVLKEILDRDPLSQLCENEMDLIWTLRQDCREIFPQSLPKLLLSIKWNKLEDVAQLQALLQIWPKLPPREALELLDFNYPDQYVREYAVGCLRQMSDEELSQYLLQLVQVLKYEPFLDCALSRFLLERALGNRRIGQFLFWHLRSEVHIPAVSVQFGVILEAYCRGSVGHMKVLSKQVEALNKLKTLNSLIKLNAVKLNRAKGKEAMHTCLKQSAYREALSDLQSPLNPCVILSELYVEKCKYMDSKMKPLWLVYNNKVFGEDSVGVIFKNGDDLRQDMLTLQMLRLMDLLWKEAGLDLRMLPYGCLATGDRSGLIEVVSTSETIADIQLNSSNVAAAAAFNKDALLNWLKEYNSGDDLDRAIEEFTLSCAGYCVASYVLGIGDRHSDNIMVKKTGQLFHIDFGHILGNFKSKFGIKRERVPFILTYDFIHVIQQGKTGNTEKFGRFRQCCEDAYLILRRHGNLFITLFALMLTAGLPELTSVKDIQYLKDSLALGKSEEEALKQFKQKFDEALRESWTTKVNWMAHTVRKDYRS

| SMILES | Ki [1] [nM] | microsomal CLint (in vitro) [µL/min/mg] | Ki [2] [nM] | Ki [3] [nM] | Ki [4] [nM] | IC50 [5] [nM] |
| --- | --- | --- | --- | --- | --- | --- |
| COc1ccc(Nc2ncc(CN3CCN(C)CC3)cc2-c2nc(C)nc(N)n2)cn1 | 44 | 48 | 130 | 34 |  |  |
| COc1ccc(Nc2ncc(CN3CCOCC3)cc2-c2nc(C)nc(N)n2)cn1 | 7 | 31 | 17 | 18 |  |  |
| COc1ccc(Nc2ncc(CN3CC[C@@H](CO)C3)cc2-c2nc(C)nc(N)n2)cn1 | 59 | 20 | 100 | 51 |  |  |
| COc1ccc(Nc2ncc(CN3CCCCC3)cc2-c2nc(C)nc(N)n2)cn1 | 11 | 51 | 80 | 19 |  |  |
| COc1ccc(Nc2ncc(Br)cc2-c2nc(C)nc(N)n2)cn1 | 75 | 111 | 22 | 92 |  |  |
| COc1ccc(Nc2ncc(-c3cnn(C)c3)cc2-c2nc(C)nc(N)n2)cn1 | 6 | 24 | 6 | 6 |  |  |
| COc1ccc(Nc2ncc(CN3CCNCC3)cc2-c2nc(C)nc(N)n2)cn1 | 17 | 35 | 200 | 27 |  |  |
| COc1ccc(Nc2ncc(CN3CCC3)cc2-c2nc(C)nc(N)n2)cn1 | 22 | 37 | 140 | 50 |  |  |
| COc1ccc(Nc2ncc(Cl)cc2-c2nc(C)nc(N)n2)cn1 | 38 | 58 | 40 | 39 | 290 |  |
| COc1ccc(Nc2ncc(-c3ccc(C)nc3)cc2-c2nc(C)nc(N)n2)cn1 | 89 | 25 |  | 7 |  |  |
| COc1ccc(Nc2ncc(Cc3ccccc3)cc2-c2nc(C)nc(N)n2)cn1 | 48 | 62 | 11 | 15 | 59 |  |
| COc1ccc(Nc2ncc(C3=CCOCC3)cc2-c2nc(C)nc(N)n2)cn1 | 3 | 83 | 2 | 2 |  |  |
| COc1ccc(Nc2cnccc2-c2nc(C)nc(N)n2)cn1 | 320 | 133 | 690 | 240 | 620 |  |
| COc1cnc(Nc2ccc(OC)nc2)c(-c2nc(C)nc(N)n2)c1 | 15 | 86 | 9 | 7 |  |  |
| COc1ccc(Nc2ncc(C)cc2-c2nc(C)nc(N)n2)cn1 | 86 | 243 | 54 | 110 |  | > 10000 |
| COc1ccc(Nc2ncc(CN3CCCC3)cc2-c2nc(C)nc(N)n2)cn1 | 65 | 37 | 210 | 60 |  |  |
| Cc1nc(-c2cccnc2Nc2cccc3[nH]ccc23)c2[nH]cnc2n1 | 130 | 90 | 23 | 360 |  | 560 |
| COc1ccc(Nc2ncc(CN3CCC(S(C)(=O)=O)C3)cc2-c2nc(C)nc(N)n2)cn1 (racemic) | 5 | 23 | 5 | 3 |  |  |
| COc1ccc(Nc2ncc(CN3CCC(O)CC3)cc2-c2nc(C)nc(N)n2)cn1 | 41 | 23 | 110 | 63 |  |  |
| COCCNCc1cnc(Nc2ccc(OC)nc2)c(-c2nc(C)nc(N)n2)c1 | 67 | 31 | 99 | 30 |  |  |
| COc1ccc(Nc2ncc(CO)cc2-c2nc(C)nc(N)n2)cn1 | 56 | 43 | 24 | 20 |  |  |
| COc1ccc(Nc2ncccc2-c2ncnc3nc[nH]c23)cn1 | > 10000 | 109 | 1100 | 5700 | 8300 |  |
| COc1ccc(Nc2ncc(CN3CCN(S(=O)(=O)N(C)C)CC3)cc2-c2nc(C)nc(N)n2)cn1 | 7 | 73 | 9 | 6 |  |  |
